Measurements reported in paper PMC4741889, “Ligand-based chemoinformatic discovery of a novel small molecule inhibitor targeting CDC25 dual specificity phosphatases and displaying in vitro efficacy against melanoma cells” (Oncotarget, 2015).
Read-outs that look alike come from different tables or passages of the source.

What was measured:
CDC25B [1] = biological target: T1, CDC25B (Homo sapiens, UniProt P30305); assay: Residual phosphatase activity of recombinant CDC25B, fluorimetric OMFP assay; format: biochemical; conditions: for remaining activity at 0.2 µM: 0.2 μM inhibitor; for remaining activity at 0.2 µM / remaining activity at 1 µM: 10 nM CDC25B, 25 μM OMFP, read-out: CDC25B residual activity (%) in the presence of [inhibitor]; for remaining activity at 1 µM: 1 μM inhibitor; for inhibition of the CDC25B phosphatase activity (in words): two inhibitor concentrations, 0.2 and 1 μM
T1 construct: Recombinant forms of the catalytic domains of CDC25A, -B and -C were obtained through the vectors pET28a-CDC25A-cd, pET28a-CDC25B-cd and pET28a-CDC25C-cd; made in house
T1 sequence (P30305 431-538 limits assumed): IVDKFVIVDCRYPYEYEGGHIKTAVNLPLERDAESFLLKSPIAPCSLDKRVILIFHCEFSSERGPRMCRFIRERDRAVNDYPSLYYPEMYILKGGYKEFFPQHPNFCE
Procedure: Among the twenty-five structures identified from the multiple ligand-based chemoinformatic approach, eight compounds (2, 10, 12–14, and 16–18) were excluded from the analysis, because endowed with a strong fluorescent signal, which interfered with the emission wavelength of the synthetic substrate 3-O-methylfluorescein phosphate (OMFP) used in the fluorimetric assay. The inhibition of the phosphatase activity of CDC25B by the remaining seventeen analogs was evaluated in the presence of two different concentrations of these compounds (Table 2). […] For this reason, only one of these latter compounds, i.e. 3, was included in the following analysis.
The enzymatic activity of the catalytic domains of CDC25A, -B and -C were determined through a fluorimetric method, which monitored the dephosphorylation of the synthetic substrate OMFP, essentially as previously described. In steady-state enzyme kinetic studies, the residual phosphatase activity of purified recombinant CDC25B was measured at 30°C in the presence of different concentrations of the various inhibitors, using a computer-assisted Cary Eclipse spectrofluorimeter (Varian) equipped with an electronic temperature controller. Excitation and emission wavelengths were set at 485 and 530 nm, respectively; both excitation and emission slits were set at 10 nm. The reaction mixture contained 10 nM CDC25B and different concentrations of the various inhibitors in 500 μL final volume of 20 mM Tris-HCl, pH 7.8, 1 mM DTT. DMSO was used as vehicle control. The reaction started by the addition of 25 μM OMFP, and the formation of the fluorescent product o-methylfluorescein was monitored continuously. The rate of OMFP hydrolysis was expressed as arbitrary units per min (a.u./min). The comparison of the rates determined in the absence and in the presence of the various inhibitors allowed the calculation of the residual phosphatase activity, expressed as a percentage.

CDC25B [2] = biological target: T1, CDC25B; assay: Ki from OMFP hydrolysis kinetics (Lineweaver-Burk), CDC25B; format: biochemical; conditions: 10 nM CDC25B, 1–25 μM OMFP; mean ± S.E.
Procedure: (§1) To measure the inhibition constant (Ki) of the recombinant forms of CDC25A, -B and -C towards the various inhibitors, the affinity of the different forms of CDC25 towards OMFP was measured either in the absence or in the presence of fixed concentrations of the various inhibitors. The reaction mixture contained 20 nM CDC25A, or 10 nM CDC25B, or 40 nM CDC25C, and different concentrations of the various inhibitors in 500 μL final volume of 20 mM Tris-HCl, pH 7.8, 1 mM DTT. DMSO was used as vehicle control. The reaction started by the addition of 1–25 μM OMFP, and the rate of OMFP hydrolysis was measured as indicated before. The corresponding Lineweaver-Burk plots allowed the calculation of the KM for OMFP and of the Vmax of OMFP hydrolysis, expressed as a.u./minmax. […] The Ki values were obtained from the decrease of a.u./minmax in the presence of the inhibitor, according to the equation a.u./mimmax’ = a.u./mimmax/{1 + ([I]/Ki)}, where a.u./mimmax’ represents the Vmax measured in the presence of the concentration [I] of the inhibitor. The Ki values were obtained from at least three independent experiments and reported as mean ± S.E.

A2058 cells = assay: MTT cell growth rate, A2058 melanoma cells; format: cell-based, human; conditions: A2058, 100 μM, 48 h, MTT
Procedure: (§2) The human melanoma cell line A2058, kindly provided by CEINGE (Naples, Italy), and SAN cells were derived from lymph nodal metastases and grown in DMEM and RPMI 1640, respectively, supplemented with 10% FBS, 2 mM L-glutamine, 100 IU/mL penicillin G, and 100 μg/mL streptomycin in humidified incubator at 37°C under 5% CO2 atmosphere. All cells were split and seeded every three days and used during the exponential phase of growth. Cell treatments were always carried after 24 h from plating.
(§3) The MTT assay was used to detect cell proliferation essentially as previously described. Briefly, A2058 and SAN cells were plated in 96-well microtiter plates (100 μL/well) at 4000 and 6000 cells/well, respectively. After 24-h seeding, cells were treated with the selected compounds added at 25, 50 or 100 μM concentration, or with 0.5% (v/v) DMSO as a vehicle control. After 24-h, 48-h or 72-h treatment, and upon the addition of 10 μL of MTT solution in the dark, the plate was incubated for 3 h at 37°C under CO2 atmosphere. After medium aspiration and solubilization of formazan crystals, absorbance was measured at 570 nm, using an ELISA plate reader (Bio-Rad, Milano, Italy).

SAN cells = assay: MTT cell growth rate, SAN melanoma cells; format: cell-based, human; conditions: 100 μM, 48 h, MTT
Procedure: as §2, §3

CDC25C = biological target: T2, CDC25C (Homo sapiens, UniProt P30307); assay: Ki from OMFP hydrolysis kinetics (Lineweaver-Burk), CDC25C; format: biochemical
T2 construct: Recombinant forms of the catalytic domains of CDC25A, -B and -C were obtained through the vectors pET28a-CDC25A-cd, pET28a-CDC25B-cd and pET28a-CDC25C-cd; made in house
T2 sequence (P30307 321-428 limits assumed): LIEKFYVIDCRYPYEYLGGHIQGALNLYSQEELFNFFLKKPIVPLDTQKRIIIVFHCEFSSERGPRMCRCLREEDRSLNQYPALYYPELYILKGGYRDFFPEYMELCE
Procedure: as §1, with “The reaction started by the addition of 1–25 μM OMFP, and the rate of OMFP hydrolysis was measured as indicated before.” left out

CDC25A = biological target: T3, CDC25A (Homo sapiens, UniProt P30304); assay: Ki from OMFP hydrolysis kinetics (Lineweaver-Burk), CDC25A; format: biochemical
T3 construct: Recombinant forms of the catalytic domains of CDC25A, -B and -C were obtained through the vectors pET28a-CDC25A-cd, pET28a-CDC25B-cd and pET28a-CDC25C-cd; made in house
T3 sequence (P30304 376-482 limits assumed): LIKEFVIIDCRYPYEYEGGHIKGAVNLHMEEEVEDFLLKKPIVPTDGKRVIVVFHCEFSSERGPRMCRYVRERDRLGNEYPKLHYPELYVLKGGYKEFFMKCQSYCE
Procedure: as §1, with “The reaction started by the addition of 1–25 μM OMFP, and the rate of OMFP hydrolysis was measured as indicated before.” left out

[3] = 40 nM CDC25C, 1–25 μM OMFP, mean ± S.E., read-out: Ki CDC25C
[4] = 20 nM CDC25A, 1–25 μM OMFP, mean ± S.E., read-out: Ki CDC25A

Compound	remaining activity at 0.2 µM (CDC25B [1])	remaining activity at 1 µM (CDC25B [1])	Ki (CDC25B [2])	Ki (CDC25C; [3])	Ki (CDC25A; [4])	inhibition of the CDC25B phosphatase activity (in words) (CDC25B [1])	cell growth rate (A2058 cells)	cell growth rate (SAN cells)	Ki (CDC25C)	Ki (CDC25A)
Cc1c2ccc(=O)cc-2oc2cc(O)ccc12 [Compound 1]	76%	9%				measurable inhibition of the phosphatase activity, only when added at the highest concentration				
O=C(O)CCc1c2ccc(=O)cc-2oc2cc(O)ccc12 [Compound 4]	90%	28%				measurable inhibition of the phosphatase activity, only when added at the highest concentration				
O=C(O)C=Cc1c2ccc(=O)cc-2oc2cc(O)ccc12 [Compound 5]	12%	2%	120 ± 50 nM	390 ± 150 nM	380 ± 120 nM		failure	failure		
O=C(O)/C=C/c1c2ccc(=O)c(O)c-2oc2c(O)c(O)ccc12 [Compound 6, (E)-3-(4,5,6-trihydroxy-3-oxo-3H-xanthen-9-yl)acrylic acid]	14%	2%	1100 ± 370 nM	1000 ± 410 nM	100 ± 30 nM			significant reduction of cell growth rate		
O=C(O)c1ccccc1-c1c2cc([N+](=O)[O-])c(=O)c(Br)c-2oc2c(Br)c(O)c([N+](=O)[O-])cc12 [Compound 19]	86%	70%				measurable inhibition of the phosphatase activity, only when added at the highest concentration				
CN(C)c1ccc(-c2c3cc(O)c(=O)cc-3oc3cc(O)c(O)cc23)cc1 [Compound 22]	80%	0%				measurable inhibition of the phosphatase activity, only when added at the highest concentration				
O=C(O)C1[C@H]2C=C[C@H](C2)[C@H]1c1c2ccc(=O)c(O)c-2oc2c(O)c(O)ccc12 (stereo partly drawn) [Compound 24, (1R,3R,4S)-3-(4,5,6-trihydroxy-3-oxo-3H-xanthen-9-yl)bicyclo[2.2.1]hept-5-ene-2-carboxylic acid]	22%	3%	300 ± 80 nM					significant reduction of cell growth rate	400 ± 110 nM	10 ± 5 nM
O=C(O)C1C(c2c3ccc(=O)c(O)c-3oc3c(O)c(O)ccc23)C2(Cl)C(Cl)=C(Cl)C1(Cl)C2(Cl)Cl (centres unmarked) [Compound 25]	24%	1%	1100 ± 400 nM	960 ± 380 nM	400 ± 150 nM		failure	failure		

Now from value to compound, other results behind:

remaining activity at 0.2 µM (CDC25B [1])	remaining activity at 1 µM (CDC25B [1])	Ki (CDC25B [2])	Ki (CDC25C; [3])	Ki (CDC25A; [4])	Compound	inhibition of the CDC25B phosphatase activity (in words) (CDC25B [1])	cell growth rate (A2058 cells)	cell growth rate (SAN cells)	Ki (CDC25C)	Ki (CDC25A)
85%	62%	2400 ± 390 nM	4400 ± 620 nM	280 ± 90 nM	O=C(O)c1c2ccc(=O)cc-2oc2cc(O)ccc12 [Compound 3]	measurable inhibition of the phosphatase activity, only when added at the highest concentration	failure	failure		
9%	0%	440 ± 200 nM	1500 ± 480 nM	800 ± 310 nM	O=c1cc2oc3cc(O)c(O)cc3c(-c3ccccc3)c-2cc1O [Compound 9]		failure	failure		
79%	18%				O=C(O)c1ccccc1-c1c2cc(I)c(=O)c(I)c-2oc2c(I)c(O)c(I)cc12 [Compound 15]	measurable inhibition of the phosphatase activity, only when added at the highest concentration				
91%	24%				O=c1ccc2c(-c3ccccc3S(=O)(=O)O)c3ccc(O)c(O)c3oc-2c1O [Compound 20]	measurable inhibition of the phosphatase activity, only when added at the highest concentration				
